Source: patent US20200197409A1, “HEPATITIS B VIRUS SURFACE ANTIGEN INHIBITOR” (FUJIAN COSUNTER PHARMACEUTICAL CO., LTD., priority 2017, published 2020)

Key:
HBV [1] = assay: In vivo pharmacodynamic study of hydrodynamic injection mouse HBV model (HDI-HBV) via tail vein; parameters: species or system Balb/c mice; details: mouse plasma
Protocol: Anti-hepatitis B virus activity of the compound of the embodiment in vivo was evaluated by HDI mice model.
Balb/c mice, 10% HP—F-CD as vehicle, test compound, RG7834, ETV (Entecavir), pAAV2-HBV 1.3mer plasmid (extracted with Qiagen EndoFree Plasmid Giga kit), main reagents including QIAamp96 DNA kit and FasStart Universal Probe Mast (ROX). The main instruments used in this experiment included centrifuge (Beckman Allegra X-15R), tissue grinder (QIAGEN-Tissue lyser II) and spectrophotometer (Thermo-NANODROP 1000).
b) On day 0, all mice were subjected to hydrodynamic injection with HBV plasmid DNA solution via tail vein. The plasmid DNA was pre-treated with sterile physiological saline before injection and stored at 4° C. until use. Plasmid DNA solution was injected via the tail vein at a dose of 8% of the body weight of the mouse within 5 seconds.
c) On the 1st day to the 7th day, the mice were administered with the compound or solvent by oral gavage for 7 days.
d) On the 1st day, 3rd day and 5th day, the blood was collected from the submandibular vein of the mice, and heparin sodium was used as an anticoagulant. The blood sample was centrifuged at 7,000×g, 4° C. to prepare the plasma for the determination of HBV DNA.
e) On the 7^h day, all mice were euthanized by CO2. The blood was collected from the heart to prepare plasma, and the liver tissue was collected. Two left hepatic lobe were isolated, the size of which was 70-100 mg, and were frozen by liquid nitrogen immediately after collection. One of the hepatic lobe was used for HBV DNA detection, and the other was used for backup.
The content of HBsAg in the serum of the mice was determined by ELISA (enzyme linked immunosorbent assay). The experimental procedure refers to the specification of HBsAg ELISA kit.
The inhibitory activity of the test compound on HBV replication on the mouse HDI model was determined by measuring the content of HBsAg in the plasma of the mice.

[2] = 14-day pre-toxicology tolerance test on rat; type: in vivo; details: once a day for 14 days, male rats
Protocol: [table] A total of 21 animals in this experiment were randomly divided into 7 groups. The animals were orally administered with the test compounds once a day for 14 consecutive days, and the toxicity was evaluated. Animal necropsy and tissue would be taken from the fixative, repaired, dehydrated, embedded, sectioned, stained and microscopically examined. These tissues included the liver, heart and lung of all animals, and spleen, stomach, duodenum, jejunum, ileum, and kidney of partial animals.

HBV [3] = assay: Anti-HBV activity on the hepatitis B virus mouse model (AAV-HBV); type: in vivo, C57BL/6 mice; details: 10 mg/kg, PO
Protocol: The AAV vector-mediated HBV infected mouse model is a fast and efficient HBV model. Using the high hepatotropism of the AAV vector, the recombinant adeno-associated type 8 virus carrying 1.3 copies of the HBV genome (rAAV8-1.3HBV) is injected into the tail vein of mice, which can efficiently introduce the carried 1.3 copy HBV genome into hepatocytes. Due to the characteristics of the AAV viral vector, the vector mediated by it can express for a long time. The AAV/HBV model can continuously replicate HBV DNA and express HBsAg and HBeAg in the liver of the mice.
The anti-HBV efficacy of the test compound in vivo was evaluated by determining the content of HBsAg in the serum of the mice after treatment with the test compound on AAV/HBV mouse mode.
C57BL/6 mice, 10% HP-f-CD as vehicle, reference compound TDF (Tenofovir), test compound, recombinant virus rAAVS-1.3HBV, main reagents of the experiment including QIAamp96 DNA kit and TaqMan® Universal PCR Master Mix, Hepatitis B Virus Surface Antigen Detection Kit, instruments including: centrifuge (Beckman Allegra X-15R), tissue grinder (QIAGEN-Tissue lyser II) and spectrophotometer (Thermo-NANODROP 1000).
a) All mice were orally administered on the 28th day after the virus injection, and the day was set as day 0. Submaxillary blood of all mice was collected for serum collection before administration. The mice were administered once a day for four weeks.
b) Submaxillary blood of all mice was collected for serum collection twice a week, the volume of the blood collected each time was approximately 100 μL.
c) On the 28th day, all mice were euthanized and the blood was collected from the heart for serum collection.
The content of HBsAg in the serum of the mice was determined by ELISA. The experimental procedure refers to the specification of HBsAg ELISA kit.
a) The anti-HBV activity of the test compound on AAV/HBV mice model was evaluated by determining the content of HBsAg in the plasma of the mice.

hepatitis B = details: woodchuck model, RG7834 as a single drug; cited from earlier work

C=C1[C@H](CO)[C@@H](O)C[C@@H]1n1cnc2c(=O)[nH]c(N)nc21 [Entecavir]
Log HBsAg (IU/mL) (Ave. value) (HBV [1]; dosing time day 1, 0.1 mg/kg QD gavage): 3.66 IU/mL
Log HBsAg (IU/mL) (Ave. value) (HBV [1]; dosing time day 3, 0.1 mg/kg QD gavage): 4.32 IU/mL
Log HBsAg (IU/mL) (Ave. value) (HBV [1]; dosing time day 5, 0.1 mg/kg QD gavage): 4.01 IU/mL
Log HBsAg (IU/mL) (Ave. value) (HBV [1]; dosing time day 7, 0.1 mg/kg QD gavage): 2.46 IU/mL

COCCCOc1cc2c(cc1OC)-c1cc(=O)c(C(=O)O)cn1[C@H](C(C)C)C2 [RG7834, reference compound]
Log HBsAg (IU/mL) (Ave. value) (HBV [1]; dosing time day 1, 30 mg/kg QD gavage): 3.75 IU/mL
Log HBsAg (IU/mL) (Ave. value) (HBV [1]; dosing time day 3, 30 mg/kg QD gavage): 4.08 IU/mL
Log HBsAg (IU/mL) (Ave. value) (HBV [1]; dosing time day 5, 30 mg/kg QD gavage): 3.59 IU/mL
Log HBsAg (IU/mL) (Ave. value) (HBV [1]; dosing time day 7, 30 mg/kg QD gavage): 1.10 IU/mL
histopathological changes associated with the test compound ([2]; high dose group (1000 mg/kg)): mild myocardial degeneration in the heart, mild degeneration of central hepatic cells in the small lobules of the liver, mild decrease of white pulp lymphocytes in the spleen, and moderate acute inflammation of the duodenal mucosa
histopathological changes associated with the test compound ([2]; medium and low dose groups (300 and 100 mg/kg), heart, liver and lung examined): no histopathological changes associated with the test compound were observed
HBsAg content in the plasma of the mice (HBV [3]; day 4): 3.54 IU/mL
HBsAg content in the plasma of the mice (HBV [3]; day 7): 3.58 IU/mL
HBsAg content in the plasma of the mice (HBV [3]; day 11): 3.70 IU/mL
HBsAg content in the plasma of the mice (HBV [3]; day 14): 3.49 IU/mL
HBsAg content in the plasma of the mice (HBV [3]; day 18): 3.70 IU/mL
HBsAg content in the plasma of the mice (HBV [3]; day 21): 3.52 IU/mL
HBsAg content in the plasma of the mice (HBV [3]; day 25): 3.50 IU/mL
HBsAg content in the plasma of the mice (HBV [3]; day 28): 3.66 IU/mL
HBsAg content in the plasma of the mice (HBV [3]; day −1): 4.56 IU/mL
reduction of HBV-DNA (hepatitis B): 1.7 Log
reduction of surface antigens (hepatitis B): 2.57 Log
